# Patent US8722849B2, “Polypeptides” (Novo Nordisk A/S, priority 2011, dated 2014)
# Read-outs that look alike come from different tables or passages of the source. Starred links: 1 amine or outer side, 2 acyl side, 3 side chain; linkers in the order of their positions; H or OH if unused. Positions of bridges follow the written chain, without caps; N, C: chain ends. Residues, ends and D or L forms follow the SMILES beside them. Groups on a side chain read outwards from the residue. *: point of attachment. C20 diacid = O=C(O)CCCCCCCCCCCCCCCCCCC(=O)*; γGlu = O=C(O)[C@H](CCC(=O)[*:2])N[*:1]; AEEA = NCCOCCOCC(=O)O
# Assay: Assay (IV) determination of solubility
# Format: physicochemical
# Summary of the method: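 Stock ~500 nmol/ml in water; 1:1 with 100 mM buffer, pH 3.0–8.0 (glycylglycine ≤5.0, bistrispropane ≥6.0); 18 h RT; spin; HPLC quantitation of soluble polypeptide.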
# [1] = pH 3, pH 3.0, read-out: Solubility pH 3.0
# [2] = pH 4, pH 4.0, 18 hours at room temperature, Table 2, read-out: Solubility pH 4.0
# [3] = pH 4, pH 4.0, read-out: Solubility pH 4.0
# [4] = pH 5, pH 5.0, read-out: Solubility pH 5.0
# [5] = pH 6, pH 6.0, read-out: Solubility pH 6.0
# [6] = pH 6.5, pH 6.5, read-out: Solubility pH 6.5
# [7] = pH 7, pH 7.0, read-out: Solubility pH 7.0
# [8] = pH 7.5, pH 7.5, read-out: Solubility pH 7.5
solubility [1],solubility [2],solubility [3],solubility [4],solubility [5],solubility [6],solubility [7],solubility [8],"solubility (pH 8, pH 8.0, read-out: Solubility pH 8.0)",SMILES
> 200 µM,172 µM,172 µM,150 µM,25 µM,27 µM,6 µM,4 µM,3 µM,"CC[C@H](C)[C@H](NC(=O)[C@@H]1CCCN1C(=O)CNC(=O)[C@H](Cc1ccccc1)NC(=O)[C@H](CC(N)=O)NC(=O)[C@H](CCCCNC(=O)COCCOCCNC(=O)COCCOCCNC(=O)CC[C@H](NC(=O)CCCCCCCCCCCCCCCCCCC(=O)O)C(=O)O)NC(=O)[C@H](CO)NC(=O)[C@H](CO)NC(=O)[C@H](Cc1c[nH]cn1)NC(=O)[C@@H](NC(=O)[C@H](CC(C)C)NC(=O)[C@H](Cc1ccccc1)NC(=O)[C@H](CCC(=O)O)NC(=O)[C@H](C)NC(=O)[C@H](CC(C)C)NC(=O)[C@H](CCCNC(=N)N)NC(=O)[C@H](CCC(N)=O)NC(=O)[C@@H](NC(=O)[C@H](C)NC(=O)[C@@H]1CSSC[C@H](NC(=O)[C@@H](N)CCCCN)C(=O)N[C@@H](CC(N)=O)C(=O)N[C@@H]([C@@H](C)O)C(=O)N[C@@H](C)C(=O)N[C@@H]([C@@H](C)O)C(=O)N1)[C@@H](C)O)C(C)C)C(=O)N[C@@H](CC(C)C)C(=O)N[C@@H](CO)C(=O)N[C@@H](CO)C(=O)N[C@H](C(=O)N[C@@H](CC(N)=O)C(=O)N[C@H](C(=O)NCC(=O)N[C@@H](CO)C(=O)N[C@@H](Cc1c[nH]cn1)C(=O)N[C@H](C(=O)N[C@@H](Cc1ccc(O)cc1)C(N)=O)[C@@H](C)O)C(C)C)[C@@H](C)O [Example 131, N-epsilon21-[2-(2-{2-[2-(2-{2-[(S)-4-Carboxy-4-(19-carboxyheptadecanoylamino)butyrylamino]ethoxy}ethoxy)acetylamino]ethoxy}ethoxy)acetyl]-[Glu14,Lys21,Ser28,Ser29,His35]-pramlintide] (H-KCNTATCATQRLAEFLVHSSK([AEEA-AEEA-γGlu-C20 diacid])NFGPILSSTNVGSHTY-NH2; disulfide 2-7)"
> 200 µM,> 200 µM,> 200 µM,185 µM,118 µM,1 µM,1 µM,1 µM,,"CC[C@H](C)[C@H](NC(=O)[C@H](CCCCNC(=O)COCCOCCNC(=O)COCCOCCNC(=O)CC[C@H](NC(=O)CCCCCCCCCCCCCCCCCCC(=O)O)C(=O)O)NC(=O)CNC(=O)[C@H](Cc1ccccc1)NC(=O)[C@H](CC(N)=O)NC(=O)[C@H](CC(N)=O)NC(=O)[C@H](CO)NC(=O)[C@H](CO)NC(=O)[C@H](Cc1c[nH]cn1)NC(=O)[C@H](Cc1c[nH]cn1)NC(=O)[C@H](CC(C)C)NC(=O)[C@H](Cc1ccccc1)NC(=O)[C@H](CCC(=O)O)NC(=O)[C@H](C)NC(=O)[C@H](CC(C)C)NC(=O)[C@H](CCCNC(=N)N)NC(=O)[C@H](CCC(N)=O)NC(=O)[C@@H](NC(=O)[C@H](C)NC(=O)[C@@H]1CSSC[C@H](NC(=O)[C@@H](N)CCCCN)C(=O)N[C@@H](CC(N)=O)C(=O)N[C@@H]([C@@H](C)O)C(=O)N[C@@H](C)C(=O)N[C@@H]([C@@H](C)O)C(=O)N1)[C@@H](C)O)C(=O)N[C@@H](CC(C)C)C(=O)N[C@@H](CO)C(=O)N[C@@H](CO)C(=O)N[C@H](C(=O)N[C@@H](CC(N)=O)C(=O)N[C@H](C(=O)NCC(=O)N[C@@H](CO)C(=O)N[C@@H](Cc1c[nH]cn1)C(=O)N[C@H](C(=O)N[C@@H](Cc1ccc(O)cc1)C(N)=O)[C@@H](C)O)C(C)C)[C@@H](C)O [Example 142, N-epsilon25-[2-(2-{2-[2-(2-{2-[(S)-4-Carboxy-4-(19-carboxyheptadecanoylamino)butyrylamino]ethoxy}ethoxy)acetylamino]ethoxy}ethoxy)acetyl]-[Glu14,His17,Lys25,Ser28,Ser29,His35]-pramlintide] (H-KCNTATCATQRLAEFLHHSSNNFGK([AEEA-AEEA-γGlu-C20 diacid])ILSSTNVGSHTY-NH2; disulfide 2-7)"
